US4062733A, “Radio-assay of oestrogen” (The Radiochemical Centre Limited, priority 1975, dated 1977)
Blank lines part the entries; values can stand above or below the molecule they belong to.

Key:
Format in all cases: binding
[1] = test system: antiserum produced by immunising with an oestrone derivative coupled in the 6 position (The John Radcliffe Hospital, Oxford); assay: radioimmunoassay of oestrone, standard curve, John Radcliffe Hospital antiserum; settings: J. Radcliffe Hosp. antiserum 1/32,000, label age 30 days
[2] = test system: antiserum produced by immunising with oestrone-6-carbomethoxyoximethyroglobulin (Miles-Yeda); assay: radioimmunoassay of oestrone, standard curve, Miles-Yeda antiserum; settings: Miles-Yeda antiserum as supplied, label age 23 days
[3] = test system: antiserum produced by immunising with an oestradiol derivative coupled in the 6 position (The John Radcliffe Hospital, Oxford); assay: radioimmunoassay of oestradiol, standard curve, John Radcliffe Hospital antiserum
[4] = test system: antiserum produced by immunising with oestradiol-6-carbomethoxyoxime-BSA (Miles-Yeda); assay: radioimmunoassay of oestradiol, standard curve, Miles-Yeda antiserum; settings: Miles-Yeda antiserum as supplied, label age 23 days
[5] = test system: antiserum produced against oestriol conjugated to albumin (antiserum A); assay: radioimmunoassay of oestriol, standard curve, antiserum A
Description: (§1) In the assay, an accurately known volume of the biological fluid is incubated with a standard amount of the radio-iodinated oestrogen derivative and a standard amont of the specific reagent, e.g. antibody, insufficient to bind all the oestrogens present. The radio-iodinated oestrogen derivatives and the specific reagent may conveniently be provided in buffered solution containing horse serum. […] The radioactive concentration of the precipitate and/or the supernatant liquid is then counted by standard techniques. If an absolute determination is required, a calibration curve may be generated in the usual way by means of oestrogen, e.g. oestriol, solutions of known concentrations, conveniently also in horse serum.
(§2) Chloramine-T (0.5 mg in 100 μl water) is added to a stirred mixture of oestriol (50 μg in 400 ul ethanol) and Na^125 I (10mCi in 100 μl dilute NaOH), and the mixture is stirred for a further 5 minutes. Sodium metabisulphite (1.2 mg in 500 μl water) is then added and the mixture stirred for 5 minutes before 1 ml of 0.1 M HCl is added. The mixture is then vigorously stirred with 1 ml of chloroform. The aqueous layer is separated from the organic solvent, and the aqueous layer is re-extracted with a further 1 ml of chloroform. The pooled chloroform extracts are evaporated to dryness under a stream of nitrogen, and the residue is redissolved in 50 μl of ethanol. The ethanol solution of ^125 I -- labelled oestriol derivative is purified by chromatography and the product is diluted in phosphate buffer containing horse serum (10%), sodium azide (1 mg/ml) and gelatine (1 mg/ml) prior to use in the radioimmunoassay
(§3) Samples of 50 μl of standard solutions of oestriol in horse serum, or of the unknown human serum samples, are dispensed into plastic tubes. To each tube is added 200 μl of a solution of enzymes (extracted from the snail Helix pomatia) in sodium acetate buffer, pH 5, and the contents of the tubes are briefly mixed. The tubes are then stoppered and incubated in a water bath at 37° C for 2 hours. After the incubation, replicate 50 μl samples are taken from the hydrolysed serum and dispensed into plastic tubes. to each tube is added 200 μl of phosphate buffer containing 10% horse serum, sodium azide (1 mg/ml) gelatine (1 mg/ml), and the oestriol derivative labelled with ^125 I as described above (approximately 0.3 μCi/ml). Volumes of 200 μl of the phosphate buffer containing horse serum, sodium azide and gelatine, and containing a dilution of antiserum produced against oestriol conjugated to albumin are added to each tube, and the contents of the tubes are then mixed. The tubes are left at ambient temperature for 30 minutes, and 500 μl of an ammoniumm sulphate solution (5.4 g in 10 ml water) is then added to each tube. After mixing, the tubes are centrifuged, the supernatant liquid is removed by aspiration and the precipitates in the tubes are counted in a γ-counter.

[6] = test system: antiserum produced against oestriol conjugated to albumin (antiserum B); assay: radioimmunoassay of oestriol, standard curve, antiserum B
Description: as §1, §2, §3

[7] = test system: antiserum produced by immunising with oestriol-6-carbomethoxyoxime-BSA (antiserum A); assay: radioimmunoassay of oestetrol, standard curve, antiserum A; settings: antiserum A 1/100, label age 7 days
[8] = test system: antiserum produced by immunising with oestriol-6-carbomethoxyoxime-BSA (antiserum B); assay: radioimmunoassay of oestetrol, standard curve, antiserum B; settings: antiserum B 1/100, label age 7 days
[9] = J. Radcliffe antiserum 1/640, label age 31 days
[10] = J. Radcliffe antiserum 1/3200, label age 30 days

SMILES: C[C@]12CC[C@@H]3c4ccc(O)cc4CC[C@H]3[C@@H]1CCC2=O [E1, oestrone]
% Bound, 1ng oestrone [1]: 11.2%
% Bound, 1ng oestrone [2]: 15.4%

SMILES: C[C@]12CC[C@@H]3c4ccc(O)cc4CC[C@H]3[C@@H]1CC[C@@H]2O [E2, oestradiol]
% Bound, 1ng E2 [3, 9]: 32.7%
% Bound, 2ng E2 [3, 9]: 13.1%
% Bound, 1ng E2 [3, 10]: 3.0%
% Bound, 2ng E2 [3, 10]: 0.5%
% Bound, 1ng E2 [4]: 4.0%

SMILES: C[C@]12CC[C@@H]3c4ccc(O)cc4CC[C@H]3[C@@H]1C[C@@H](O)[C@@H]2O [E3, Oestriol]
% Bound, 50 ng E3 ([5]; 50 ng E3): 57.2%
% Bound, 100 ng E3 ([5]; 100 ng E3): 47.3%
% Bound, 200 ng E3 ([5]; 200 ng E3): 32.6%
% Bound, 350 ng E3 ([5]; 350 ng E3): 23.0%
% Bound, 500 ng E3 ([5]; 500 ng E3): 17.5%
% Bound, 50 ng E3 ([6]; 50 ng E3): 55.2%
% Bound, 100 ng E3 ([6]; 100 ng E3): 47.3%
% Bound, 200 ng E3 ([6]; 200 ng E3): 33.0%
% Bound, 350 ng E3 ([6]; 350 ng E3): 21.4%
% Bound, 500 ng E3 ([6]; 500 ng E3): 17.3%

% Binding in presence of 20ng E4 [7]: 11.0%
% Binding in presence of 20ng E4 [8]: 8.1%
SMILES: C[C@]12CC[C@@H]3c4ccc(O)cc4CC[C@H]3[C@@H]1[C@@H](O)[C@@H](O)[C@@H]2O [E4, oestetrol]
